Key:
Blautia luti = test: Antibacterial activity against Ruminococcus luti by CLSI M11-A6 agar dilution method in presence of beta-lactamase inhibitor Sulbactam; assay type: functional
Bacteroides fragilis = test: Antibacterial activity against Bacteroides fragilis by CLSI M11-A6 agar dilution method in presence of beta-lactamase inhibitor Sulbactam; assay type: functional
[1] = tested on: Paeniclostridium sordellii; test: Antibacterial activity against Clostridium sordellii by CLSI M11-A6 agar dilution method in presence of beta-lactamase inhibitor Sulbactam; assay type: functional; details: Paraclostridium sordellii
[2] = tested on: Clostridium celerecrescens; test: Antibacterial activity against Clostridium celerecrescens by CLSI M11-A6 agar dilution method in presence of beta-lactamase inhibitor Sulbactam; assay type: functional; details: Lacrimispora celerecrescens
Clostridium sp. = test: Antibacterial activity against Clostridium sp. by CLSI M11-A6 agar dilution method in presence of beta-lactamase inhibitor Sulbactam; assay type: functional
[3] = tested on: Paraclostridium bifermentans; test: Antibacterial activity against Clostridium bifermentans by CLSI M11-A6 agar dilution method in presence of beta-lactamase inhibitor Sulbactam; assay type: functional
Clostridium spiroforme = test: Antibacterial activity against Clostridium spiroforme by CLSI M11-A6 agar dilution method in presence of beta-lactamase inhibitor Sulbactam; assay type: functional; details: Thomasclavelia spiroformis
Hoylesella loescheii = test: Antibacterial activity against Prevotella loescheii by CLSI M11-A6 agar dilution method in presence of beta-lactamase inhibitor Sulbactam; assay type: functional
[4] = Antibacterial activity against Bifidobacterium infantis by CLSI M11-A6 agar dilution method in presence of beta-lactamase inhibitor Sulbactam; assay type: functional, Bifidobacterium longum subsp. infantis; details: Bifidobacterium longum
Clostridium sporogenes = test: Antibacterial activity against Clostridium sporogenes by CLSI M11-A6 agar dilution method in presence of beta-lactamase inhibitor Sulbactam; assay type: functional
Clostridium hathewayi = test: Antibacterial activity against Clostridium hathewayi by CLSI M11-A6 agar dilution method in presence of beta-lactamase inhibitor Sulbactam; assay type: functional; details: Hungatella hathewayi
Clostridium bolteae = test: Antibacterial activity against Clostridium bolteae by CLSI M11-A6 agar dilution method in presence of beta-lactamase inhibitor Sulbactam; assay type: functional; details: Enterocloster bolteae
Prevotella oris = test: Antibacterial activity against Prevotella oris by CLSI M11-A6 agar dilution method in presence of beta-lactamase inhibitor Sulbactam; assay type: functional; details: Segatella oris
Actinomyces naeslundii = test: Antibacterial activity against Actinomyces naeslundii by CLSI M11-A6 agar dilution method in presence of beta-lactamase inhibitor Sulbactam; assay type: functional
Coriobacterium = test: Antibacterial activity against […] by CLSI M11-A6 agar dilution method in presence of beta-lactamase inhibitor Sulbactam; assay type: functional
[5] = tested on: Coprobacillus cateniformis; test: Antibacterial activity against Coprobacillus cateniformis by CLSI M11-A6 agar dilution method in presence of beta-lactamase inhibitor Sulbactam; assay type: functional
Ruminococcus obeum = test: Antibacterial activity against Ruminococcus obeum by CLSI M11-A6 agar dilution method in presence of beta-lactamase inhibitor Sulbactam; assay type: functional; details: Blautia obeum
Clostridium bartlettii = test: Antibacterial activity against Clostridium bartlettii by CLSI M11-A6 agar dilution method in presence of beta-lactamase inhibitor Sulbactam; assay type: functional; details: Intestinibacter bartlettii
[6] = tested on: Enterocloster clostridioformis; test: Antibacterial activity against Clostridium clostridioforme by CLSI M11-A6 agar dilution method in presence of beta-lactamase inhibitor Sulbactam; assay type: functional
Ruminococcus lactaris = test: Antibacterial activity against Ruminococcus lactaris by CLSI M11-A6 agar dilution method in presence of beta-lactamase inhibitor Sulbactam; assay type: functional
[7] = tested on: Peptostreptococcus anaerobius; test: Antibacterial activity against Peptostreptococcus anaerobius by CLSI M11-A6 agar dilution method in presence of beta-lactamase inhibitor Sulbactam; assay type: functional
Prevotella nigrescens = test: Antibacterial activity against Prevotella nigrescens by CLSI M11-A6 agar dilution method in presence of beta-lactamase inhibitor Sulbactam; assay type: functional
[8] = tested on: Propionibacterium propionicum; test: Antibacterial activity against Propionibacterium propionicus by CLSI M11-A6 agar dilution method in presence of beta-lactamase inhibitor Sulbactam; assay type: functional; details: Arachnia propionica
[9] = tested on: Peptoniphilus asaccharolyticus; test: Antibacterial activity against Peptoniphilus asaccharolyticus by CLSI M11-A6 agar dilution method in presence of beta-lactamase inhibitor Sulbactam; assay type: functional
Clostridium perfringens = test: Antibacterial activity against Clostridium perfringens by CLSI M11-A6 agar dilution method in presence of beta-lactamase inhibitor Sulbactam; assay type: functional
Clostridium scindens = test: Antibacterial activity against Clostridium scindens by CLSI M11-A6 agar dilution method in presence of beta-lactamase inhibitor Sulbactam; assay type: functional
Clostridium leptum = test: Antibacterial activity against Clostridium leptum by CLSI M11-A6 agar dilution method in presence of beta-lactamase inhibitor Sulbactam; assay type: functional
Collinsella aerofaciens = test: Antibacterial activity against Colinsella aerofaciens by CLSI M11-A6 agar dilution method in presence of beta-lactamase inhibitor Sulbactam; assay type: functional
Flavonifractor plautii = test: Antibacterial activity against Clostridium orbiscindens by CLSI M11-A6 agar dilution method in presence of beta-lactamase inhibitor Sulbactam; assay type: functional
Prevotella buccae = test: Antibacterial activity against Prevotella buccae by CLSI M11-A6 agar dilution method in presence of beta-lactamase inhibitor Sulbactam; assay type: functional; details: Segatella buccae
Clostridioides difficile = test: Antibacterial activity against Clostridium difficile by CLSI M11-A6 agar dilution method in presence of beta-lactamase inhibitor Sulbactam; assay type: functional
Hoylesella oralis = test: Antibacterial activity against Prevotella oralis by CLSI M11-A6 agar dilution method in presence of beta-lactamase inhibitor Sulbactam; assay type: functional
Ruminococcus gnavus = test: Antibacterial activity against Ruminococcus gnavus by CLSI M11-A6 agar dilution method in presence of beta-lactamase inhibitor Sulbactam; assay type: functional; details: Mediterraneibacter gnavus
Prevotella corporis = test: Antibacterial activity against Prevotella corporis by CLSI M11-A6 agar dilution method in presence of beta-lactamase inhibitor Sulbactam; assay type: functional
[10] = tested on: Streptococcus constellatus; test: Antibacterial activity against Streptococcus constellatus by CLSI M11-A6 agar dilution method in presence of beta-lactamase inhibitor Sulbactam; assay type: functional

CC1(C)S[C@@H]2[C@H](NC(=O)[C@H](N)c3ccccc3)C(=O)N2[C@H]1C(=O)O [AMPICILLIN]
4 µg/mL: MIC90 (Clostridioides difficile)
1 µg/mL: MIC90 (Blautia luti) | MIC50 (Bacteroides fragilis) | MIC90 [1] | MIC90 [2] | MIC90 (Clostridium sp.) | MIC90 [3] | MIC90 (Clostridium spiroforme) | MIC90 [4] | MIC90 (Clostridium sporogenes) | MIC90 (Actinomyces naeslundii) | MIC90 (Coriobacterium) | MIC90 [5] | MIC90 (Clostridium bartlettii) | MIC90 (Ruminococcus lactaris) | MIC90 [8] | MIC90 (Clostridium scindens) | MIC90 (Clostridium leptum) | MIC90 (Collinsella aerofaciens) | MIC90 (Flavonifractor plautii) | MIC90 (Ruminococcus gnavus)
2 µg/mL: MIC90 (Hoylesella loescheii) | MIC50 (Clostridium hathewayi) | MIC90 (Clostridium hathewayi) | MIC90 (Prevotella oris) | MIC50 [6] | MIC90 (Prevotella nigrescens) | MIC90 (Prevotella buccae) | MIC (Clostridioides difficile) | MIC50 (Clostridioides difficile) | MIC90 (Hoylesella oralis) | MIC90 (Prevotella corporis)
0.25 µg/mL: MIC50 [1] | MIC50 [2] | MIC50 (Clostridium sp.) | MIC50 [3] | MIC50 (Clostridium spiroforme) | MIC50 [4] | MIC50 (Clostridium sporogenes) | MIC50 (Actinomyces naeslundii) | MIC50 (Coriobacterium) | MIC50 [5] | MIC90 (Ruminococcus obeum) | MIC50 (Clostridium bartlettii) | MIC50 [7] | MIC50 [8] | MIC50 [9] | MIC50 (Clostridium scindens) | MIC50 (Clostridium leptum) | MIC50 (Collinsella aerofaciens) | MIC50 (Flavonifractor plautii)
0.5 µg/mL: MIC90 [7] | MIC90 [9] | MIC50 [10] | MIC90 [10]
≤ 0.12 µg/mL: MIC50 (Blautia luti) | MIC50 (Hoylesella loescheii) | MIC50 (Prevotella oris) | MIC50 (Ruminococcus obeum) | MIC50 (Ruminococcus lactaris) | MIC50 (Prevotella nigrescens) | MIC (Clostridium perfringens) | MIC50 (Clostridium perfringens) | MIC90 (Clostridium perfringens) | MIC50 (Prevotella buccae) | MIC50 (Hoylesella oralis) | MIC50 (Ruminococcus gnavus) | MIC50 (Prevotella corporis)
8 µg/mL: MIC90 (Bacteroides fragilis) | MIC50 (Clostridium bolteae)
16 µg/mL: MIC90 (Clostridium bolteae) | MIC90 [6]

Source: ChEMBL document CHEMBL1671662, “In vitro activities of telavancin and six comparator agents against anaerobic bacterial isolates” (2009)
